The values that follow come from patent US11297861B2, “Sweet protein from truffle” (MycoTechnology, Inc., priority 2020, dated 2022).

The subject of this assay is sweet taste. Kind of assay: CATA time intensity of the sweet sensation, trained panel. To be noted: 10% sucrose in water. The class given is in vivo, human. How it is done:
Evaluation of thaumatin, sucrose, and SEQ ID NO:21 was carried out using a CATA (click all that apply) time intensity of the sweet sensation of named analytes in water at 0.045 mg/ml for proteins and 10% sucrose. Methodology: Time Intensity Technique; Data collection software: EyeQuestion, responses recorded every 2.57 seconds; Scaling Method: a 15-point sweet scale, e.g. score 5=5% sucrose, score 10=10% sucrose; Evaluation Protocol: small volume sip, tilt and spit test. There were 3-6 panelists and 2 replicates. All samples were blinded and presented with randomized 3-digit codes. Training Strategies: An intense training on sweet scale over 6 weeks on 15-point sweet scale to confidently assign sweet values. Due to unique sweet behavioral patterns, it is necessary to train time intensity principles over 3 weeks. Samples were tasted with a stopwatch to note times and help reach a consensus. # of Panelists: 3-6, # of replications: 2. All samples were blinded and presented with randomized 3-digit codes. Statistical analysis: due to the small # of panelists, a statistical analysis cannot be performed.

SMILES strings stand for the structures.

`OC[C@H]1O[C@@](CO)(O[C@H]2O[C@H](CO)[C@@H](O)[C@H](O)[C@H]2O)[C@@H](O)[C@@H]1O` [SUC, sucrose]: the “time to threshold sweetness (Intensity <1)” value was 162 s.
